Measured values published in PMC4230943, “Mimicking Hypoxia to Treat Anemia: HIF-Stabilizer BAY 85-3934 (Molidustat) Stimulates Erythropoietin Production without Hypertensive Effects” (PLoS ONE, 2014).

How the values were obtained:
male Wistar rats [1] = test: Subtotal nephrectomy (remnant kidney) model; type: in vivo, rat
Protocol: In the chronic disease models of subtotal nephrectomy and inflammation, the sodium salt of BAY 85-3934 was used. For administration in drinking water, BAY 85-3934 sodium and enalapril were prepared as 100 mM sodium bicarbonate saline solutions (adjusted to pH 7) at final concentrations of 80 ppm and 30 ppm, respectively. Sham and vehicle control animals received saline only. Unless otherwise stated, chemicals and reagents were purchased from Sigma-Aldrich.
Subtotal nephrectomy was conducted in adult male Wistar rats. Body weight, blood pressure, hematocrit, and blood cell counts were determined at baseline and thereafter at weekly intervals. At baseline, rats were randomly distributed into two groups: those that underwent subtotal nephrectomy and those that underwent a sham procedure without reduction of renal mass. Surgery was performed in deeply anesthetized (2% isoflurane in air) animals. Kidneys were accessed via a dorsolateral incision of the body wall of about 2 cm in length. The right kidney was removed after ligature of the renal peduncle, and subsequently the upper and lower pole of the left kidney were removed, followed by careful hemostasis. Approximately one third of the initial kidney mass remained (removed tissue was weighed to check this was achieved). In the sham-treated animals, both kidneys were exposed before closure of the wound. Three weeks after surgery, animals were allocated to each group in equal proportions with respect to systolic blood pressure and hematocrit values. For 5 weeks, animals were treated twice weekly with rhEPO (100 IU/kg), or once daily with […] (2.5 mg/kg or 5.0 mg/kg) or vehicle. In experiments using enalapril or a combination of BAY 85-3934 sodium and enalapril, study drugs were administered with drinking water. BAY 85-3934 sodium and enalapril were administered in drinking water at concentrations of 80 ppm and 30 ppm, respectively. This was equivalent to approximately 2 mg/kg/day for enalapril and 5 mg/kg/day for BAY 85-3934. Systolic blood pressure and heart rate were determined using the tail-cuff method (a semi-automatic, non-invasive blood pressure monitor; TSE Systems), with three repeated measurements per animal.
(§1) EPO was measured in plasma samples taken from rodents using a commercial ELISA kit (R&D Systems), according to the manufacturer’s instructions. Relative plasma EPO levels were given in picograms per milliliter. In cynomolgus monkeys, EPO was measured using a combination anti-human EPO ELISAs (R&D Systems and Roche Diagnostics), with human EPO as a standard. Values were given as units per liter. For determination of plasma prorenin from rats, a commercial ELISA (Oxford Biomedical Research) was used according to the manufacturer’s instructions. Hemoglobin in rodent blood samples was determined on a Cell-Dyn 3700 apparatus (Abbott Diagnostics). BAY 85-3934 plasma concentrations were determined after protein precipitation with acetonitrile/ammonium acetate using an internal standard, followed by separation using HPLC/mass spectrometry.
As well as anemia and inflammation, CKD is often accompanied by hypertension, upon which treatment with rhEPO may have an unfavorable impact. The effects of BAY 85-3934 were compared with rhEPO in the remnant kidney (subtotal nephrectomy) model in rats.

[2] = tested on: matrix metalloproteinases and other peptidases; test: Activity against related enzymes (n = 8); type: biochemical; conditions: 10 µM, n = 8 enzymes, data not shown
Protocol: The selectivity of BAY 85-3934 was examined via a broad panel of radio-ligand binding assays (n = 67), and by examining the activity of BAY 85-3934 against related enzymes (matrix metalloproteinases and other peptidases, n = 8). At a concentration of 10 µM, no significant (> 50%) activity in any of these assays was detected (data not shown).

cynomolgus monkeys = test: Comparison of BAY 85-3934 with rhEPO (single dose and 14-day repeat dose); type: in vivo, cynomolgus monkey
Protocol: Male and female cynomolgus monkeys (2.8–5.6 kg in body weight) were used, which were housed two per cage. Blood samples from conscious cynomolgus monkeys were taken by puncturing a superficial vein. In a 5-day, repeat-dose study of plasma EPO response, BAY 85-3934 was administered at doses of 0.5 mg/kg and 1.5 mg/kg at 0 h, 24 h, 48 h, 72 h, and 96 h. Blood samples were taken at 7 h, 31 h, 55 h, 79 h, 103 h, and 168 h. Erythropoietic parameters were also evaluated after a 2-week treatment period with s.c. administration of rhEPO (100 IU/kg twice weekly at days 1, 4, 8, and 11) and BAY 85-3934 (1.5 mg/kg) once daily.
as §1
In a further study, the efficacy of oral treatment with BAY 85-3934 was evaluated in comparison with rhEPO. Animals were administered a single dose of rhEPO (100 IU/kg) by s.c. injection or BAY 85-3934 (1.5 mg/kg, oral). After administration of rhEPO, plasma concentrations of rhEPO were more than 8-fold higher than the endogenous EPO levels induced by treatment with BAY 85-3934 (Fig. 3B). The area under the curve (AUC) of rhEPO was more than 6-fold higher than the AUC of endogenous EPO. […] Mean reticulocyte counts were 2-fold higher after treatment with rhEPO than after treatment with BAY 85-3934, but returned to baseline values 8 days after treatment cessation.

[3] = BAY 85-3934 plasma levels after oral administration; type: in vivo, rat
Protocol: (§2) Male Wistar rats (240–340 g in body weight) were housed with five animals per cage for at least 1 week before experimentation. Blood samples from rats were collected under anesthesia (2% isoflurane in air) by puncturing the retro-orbital vein plexus with a glass capillary. In a repeat-dose, 26-day experiment, animals were administered vehicle or BAY 85-3934 at doses of 0.5 mg/kg, 1.25 mg/kg, 2.5 mg/kg, and 5 mg/kg. PCV was determined at baseline and at weekly intervals after centrifugation in a hematocrit capillary tube (Brand) for 10 min at full speed in a Haemofuge centrifuge (Heraeus). The number of reticulocytes in 5 µl blood was counted after staining with thiazol orange (Becton Dickinson) according to the manufacturer’s instructions by FACS analysis on a BD FACSCalibur system (Becton Dickinson). The efficacy of BAY 85-3934 (2.5 mg/kg, once-daily, oral) was also compared with that of rhEPO (25 IU/kg, 50 IU/kg, and 100 IU/kg, twice-weekly, s.c. injection). The time-course of induction of EPO mRNA expression and plasma EPO was determined at baseline and 0.5 h, 1 h, 2 h, 4 h, 6 h, and 8 h after oral administration of a single dose of BAY 85-3934 (5 mg/kg).
as §1

male Wistar rats [4] = test: 26-day repeat-dose experiment, packed cell volume
Protocol: as §2

## O=c1c(-n2ccnn2)c[nH]n1-c1cc(N2CCOCC2)ncn1 [BAY 85-3934, 2-[6-(morpholin-4-yl)pyrimidin-4-yl]-4-(1H-1,2,3-triazol-1-yl)-1,2-dihydro-3H-pyrazol-3-one]
Male Wistar rats [1]; 2.5 mg/kg group
  mean systolic blood pressure: almost normalized values
Male Wistar rats [1]; 5 mg/kg
  systolic blood pressure versus control and rhEPO-treated animals: significantly lower
Male Wistar rats [1]; 5 mg/kg group, 2 weeks after onset of treatment
  mean PCV: exceeded 50%
Male Wistar rats [1]; 5 weeks, tail-cuff
  systolic blood pressure compared with untreated controls: sustained reduction
Male Wistar rats [1]; BAY 85-3934 2.5 and 5 mg/kg once daily, rhEPO 100 IU/kg twice weekly
  mean PCV: significantly increased
Male Wistar rats [1]; data not shown
  cardiac hypertrophy: complete prevention
Male Wistar rats [1]; once daily oral, 5 weeks
  plasma prorenin after the decrease in blood pressure: not followed by the return of prorenin to normal levels
[2]
  activity against related enzymes: ≤ 50%
Cynomolgus monkeys; 14 days, rhEPO 100 IU/kg twice weekly s.c., BAY 85-3934 1.5 mg/kg once daily
  mean gains of hemoglobin and red blood cells, both treatments compared: almost completely congruent over time
Cynomolgus monkeys; chronic once-daily administration
  induced EPO peak concentrations, factor within the normal physiological range: approximately 2 fold
[3]; 6 h after 5 mg/kg oral
  fraction of BAY 85-3934 eliminated from the plasma: ~90%
[3]; rat, plasma, oral, 5 mg/kg, male Wistar rats
  half-life: 3.4 h
[3]; rat, plasma, po, 5 mg/kg, male Wistar rats
  bioavailability: ~38%
Male Wistar rats [4]; 1.25 mg/kg once daily, by day 26
  gain in mean PCV: approximately 3%
Male Wistar rats [4]; 5 mg/kg once daily, 26 days
  mean PCV gain from baseline: 17%
Male Wistar rats [4]; 0.5–5 mg/kg, 26 days
  tolerability: well tolerated
Male Wistar rats [4]; once daily oral, 26 days
  dose from which mean PCV is significantly elevated versus vehicle: ≥ 1.25 mg/kg
